Patent publication US20070093449A1, “Novel IV formulation of tipifarnib” (priority 2005, published 2007)
Like-named read-outs stand apart in the source and are kept apart here.

What was measured:
[1] = Solubility and hydrolytic stability of tipifarnib in water; assay type: physicochemical
Method: Tipifarnib is a base with very good water solubility at acidic pH. It hydrolyzes to R110127, wherein the amine functionality is replaced by a hydroxy functionality. […] R110127 has the following structure: [drawing 2]
[…] is added to Formulation 1 to solubilize tipifarnib when it is reconstituted with Formulation 2. The pH value of the reconstituted solution is ˜4.5. At this pH value tipifarnib precipitates if no Hydroxypropyl-β-cyclodextrin is present. The risk of local irritation during infusion into a peripheral vein (arm) is at an acceptable level at this pH value.

[2] = biological target: human farnesyltransferase (FTase) (Homo sapiens, UniProt P49354+P49356); settings: in vitro and in vivo; cited from earlier work
[3] = Plasma pharmacokinetics of tipifarnib after oral, 2-hour i.v. and continuous i.v. administration in cancer patients; assay type: in vivo, human; settings: for systemic exposure (AUC0-10h) lower relative to 200 mg oral dose: Day 4, cohort 1 (3 subjects); for systemic exposure lower relative to 200 mg oral dose: cohort 2 (3 subjects); for bioavailability: oral, dose-normalized AUC0-10h, fed, read-out: mean absolute bioavailability of the oral tablet; for bioavailability / Tmax: 200 mg; for Tmax: po
Method: The objective of the first (dose-determination) phase of the study was to identify an intravenous regimen that was well tolerated. It was expected that this regimen would be equivalent to 50% -60% of a clinically relevant oral dose (200 mg), based on a prior pilot determination of absolute bioavailability in healthy male volunteers. A first cohort of 3 subjects received the following uninterrupted 4-day consecutive treatments of tipifarnib: 30 mg as a 2-hour intravenous infusion b.i.d. on Day 1-4, followed by 200 mg as oral administration b.i.d. on Day 5-8, followed by 60 mg per day as a continuous intravenous infusion on Day 9-12. Similarly, a second cohort of 3 subjects received similar 4-day regimens of tipifarnib: 60 mg as a 2-hour intravenous infusion b.i.d., followed by 200 mg as oral administration b.i.d., followed by 120 mg per day as a continuous intravenous infusion. There was no washout period between each of the 4-day oral or i.v. treatments described.
The second (i.v.-oral bridging) phase of the study was completed in separate group of patients. Systemic exposure to tipifarnib following the selected 2-hour and continuous intravenous regimens (from the previous dose-determination phase) was compared to exposure after a 200-mg b.i.d. oral regimen. The bridging phase was initiated when at least 2 subjects of the second cohort of the dose-determination phase were observed without DLT until Day 21. A total of 24 subjects were randomly assigned in a 1:1 ratio to one of two treatment sequences at the chosen intravenous regimens, in order to account for potential sequence-effects.
Sequence 1: 100 mg b.i.d. administered as a 2-hour intravenous infusion on Days 1-4, followed by 200 mg oral tablets b.i.d. on Days 5-8, then 200 mg/day administered as a continuous 4-day intravenous infusion on Days 9-12.
Sequence 2: 200 mg/day administered as a continuous 4-day intravenous infusion on Days 1-4, followed by 200 mg oral tablets b.i.d. on Days 5-8, then 100 mg b.i.d. administered as a 2-hour intravenous infusion on Days 9-12.
In both the dose-determination and the bridging phases, pharmacokinetic sampling was performed during a 10-hour period from the start of the morning dose on Day 4 of each treatment. Whole blood samples were taken immediately before, and 0.5, 1, 2, 3, 4, 6, 8, and 10 hours after oral administration. For 2-hour intravenous infusion, blood samples were taken immediately before, and 1, 2 (i.e. just before the end of the infusion), 2.25, 3, 4, 6, 8, and 10 hours after dosing. Blood samples were taken immediately before, and 2, 4, 6, 8, and 10 hours after the start of the continuous intravenous infusion.
A minimum of 7 mL of blood for each PK sample was collected. Whole blood samples were immediately placed on ice and centrifuged within 2 hours after collection (10 min, 1000×g). Separated plasma was frozen immediately at ≦−18° C. until assayed.
Plasma samples were thawed at room temperature, and individual sample was analyzed for tipifarnib using a previous published method. To 1-ml aliquots of human plasma, 200 ng of the internal standard (R121550, a structural analog) was spiked. After adding 1 ml of NaOH (0.1M), the samples were extracted twice with 4 ml of heptane containing 10% of isoamylalcohol. The combined organic phases were back-extracted with 2 ml of HCl (2M). After alkalization with concentrated ammonia, the aqueous phase was extracted once with 5 ml of heptane containing 5% of isoamylalcohol. This extract was evaporated under nitrogen at 65° C. and the residue dissolved in 100 microliters of injection solvent (Ammoniumacetate 0.01M/acetonitile/methanol; 50/25/25). A 15 μl extract was injected into an HPLC with UV detection (Agilent) at a wavelength of 240 nm. Separation was performed on a 10 cm×4.6 mm chromatographic column, packed with 3 μm C 18 BDS-Hypersil (Alltech). […]

[4] = cited from earlier work
plasma proteins [5] = assay: Tipifarnib protein binding analysis, equilibrium dialysis of patient plasma (ex vivo); assay type: in vitro ADME, human
Method: Tipifarnib was specifically labeled with [^14C] at the asymmetric carbon atom. A 7-mL blood sample was taken from 24 patients at 4 hours after the start of the continuous intravenous infusion of tipifarnib on Day 4. The plasma samples were fortified with [^14C]-tipifarnib at 500 ng/ml. The fortified plasma samples were subjected to equilibrium dialysis against a 0.067 M phosphate buffer, pH 7.17 at 37° C. for 4 hours in a Dianorm system with identical macro-1 Teflon cells and Diachema 10.17 dialysis membranes (MW cut-off 10,000). Radioactivity levels were measured in duplicate 100-μl aliquots of the fortified plasma before and after equilibrium dialysis, and in 1000-μl duplicate aliquots of the contents of buffer compartments of the dialysis cells admixed with methanol after dialysis in a Packard Tri-Carb 1900 TR liquid scintillation spectrometer. The total protein concentration was determined with a colorimetric biureet method, kit Roche Diagnostics 1929917. The albumin concentration was determined with a colorimetric bromocresol green method kit Roche Diagnostics 1970909. The α1-acid glycoprotein concentration was determined with an immuno-turbidimetric method, kit Roche Diagnostics 1557602. All these tests were performed on a Roche Hitachi Modular analyser. […]

CYP3A4 = CYP3A4 (Homo sapiens, UniProt P08684); settings: compared to CYP2C19, CYP2A6, CYP2D6, CYP2C8/9/10; cited from earlier work
CYP3A4, sequence (P08684 whole entry): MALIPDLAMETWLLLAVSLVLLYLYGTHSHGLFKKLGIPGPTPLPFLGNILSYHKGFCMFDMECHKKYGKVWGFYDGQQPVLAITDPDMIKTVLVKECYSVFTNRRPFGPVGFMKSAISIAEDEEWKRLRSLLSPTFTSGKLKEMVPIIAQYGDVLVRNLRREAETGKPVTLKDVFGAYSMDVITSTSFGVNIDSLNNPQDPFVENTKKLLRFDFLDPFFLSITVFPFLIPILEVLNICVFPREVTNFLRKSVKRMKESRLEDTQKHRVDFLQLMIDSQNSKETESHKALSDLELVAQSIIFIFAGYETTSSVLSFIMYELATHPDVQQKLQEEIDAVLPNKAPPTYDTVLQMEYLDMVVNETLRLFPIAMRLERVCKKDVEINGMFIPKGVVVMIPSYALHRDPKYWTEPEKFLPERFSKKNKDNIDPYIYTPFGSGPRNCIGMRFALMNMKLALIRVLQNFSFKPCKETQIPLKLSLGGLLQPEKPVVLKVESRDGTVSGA

advanced solid tumor = assay: Clinical assessment: efficacy / tumor response; assay type: in vivo, human
Method: (§1) Complete patient history was taken, and a physical examination (including vital signs), hematological tests, and clinical chemistry tests were performed at baseline and during treatment. To assess cardiovascular safety, twelve-lead E.C.G.s were recorded at screening, during Cycle 1 and at the end of therapy. Although objective tumor response was not the primary objective of this study, an attempt was made to obtain appropriate measurements to assess response. All adverse events and clinically relevant laboratory abnormalities were graded according to Common Toxicity Criteria (CTC version 2.0)

[6] = Clinical assessment: toxicity (CTC version 2.0), dose-limiting toxicity; assay type: in vivo, human
Text: The second and third subjects in the cohort were to be started only when the first subject completed the first intravenous and the oral treatment (i.e., 8-day period) without a dose-limiting toxicity (DLT). If a DLT occurred in 1 of 3 subjects of either the first or the second cohort, 3 supplementary subjects were to be added to that cohort. If more than 1 subject experienced DLT (either in the first 3 subjects or in the extended cohort of 6 subjects), dose escalation was to be terminated, and other subjects in that cohort had to complete their therapy at the same dose.
as §1

plasma proteins [7] = assay: In vitro plasma protein binding, plasma from 5 healthy men; assay type: in vitro ADME, human
Text: The value of the plasma protein binding of tipifarnib from the ex vivo measurement on cancer subjects in this trial is very close to that (99.22% bound) obtained from an in vitro experiment with the plasma samples from 5 healthy men. […]

[8] = oral 50- to 500-mg b.i.d.; cited from earlier work
[9] = oral administration, cited from earlier work
human hepatocytes = settings: in vitro; cited from earlier work
[10] = 2-hour i.v. infusion 100 mg b.i.d. versus oral 200 mg b.i.d.

Cn1cncc1[C@@](N)(c1ccc(Cl)cc1)c1ccc2c(c1)c(-c1cccc(Cl)c1)cc(=O)n2C [tipifarnib]
water solubility ([1]; acidic pH): very good
rate of hydrolytic degradation to R110127 ([1]; aqueous): lowest at acidic condition but still very fast
solubility in reconstituted solution ([1]; pH ~4.5, without hydroxypropyl-β-cyclodextrin): precipitates
inhibition of human farnesyltransferase (FTase) [2]: potent and selective nonpeptidomimetic competitive inhibitor
systemic exposure (AUC0-10h) lower relative to 200 mg oral dose ([3]; 30 mg b.i.d. 2-hour intravenous infusion): approximately 64%
systemic exposure lower relative to 200 mg oral dose ([3]; 60 mg b.i.d. 2-hour intravenous infusion): approximately 47%
systemic exposure (AUC0-10h) lower relative to 200 mg oral dose ([3]; 60 mg per day continuous intravenous infusion): ~59%
systemic exposure lower relative to 200 mg oral dose ([3]; 120 mg per day continuous infusion): ~46%
AUC0-10h higher than after oral administration [3, 10]: 19.3%
Cmax higher than after oral administration [3, 10]: 48.0%
bioavailability ([3]; human, plasma, oral versus 2-hour i.v.): 46.3%
bioavailability ([3]; human, plasma, oral versus continuous intravenous infusion): 40.9%
Tmax ([3]; human, plasma, oral 200 mg b.i.d. for 4 days, read-out: time of maximum plasma concentration (tmax)): ~2 h
Tmax ([3]; human, plasma, oral 200 mg b.i.d., 29 subjects, read-out: range of tmax): 0.5 to 3 h
AUC(0-t) ([3]; human, plasma, oral 200 mg b.i.d., 2-hour i.v. 100 mg b.i.d., continuous i.v. 200 mg/day, read-out: range of mean AUC0-10h values across the 3 treatments): 3990 to 4490 ng·h/mL
AUC(0-t) ([3]; human, plasma, oral 200 mg b.i.d., Day 4, n=24, read-out: arithmetic mean AUC0-10h (±SD)): 3990 ± 1670 ng·h/mL
Cmax ([3]; human, plasma, oral 200 mg b.i.d., Day 4, n=24, read-out: arithmetic mean Cmax (±SD)): 994 ± 487 ng/mL
arithmetic mean AUC0-10h (±SD) ([3]; oral 200 mg b.i.d., Day 4, n=24): 3990 ng·h/mL
mean AUC0-10h ([4]; 150 mg orally twice daily): 2495 ng·h/mL
mean Cmax ([4]; 150 mg orally twice daily): 443 ng/mL
mean AUC0-10h ([4]; 300 mg orally twice daily): 4674 ng·h/mL
mean Cmax ([4]; 300 mg orally twice daily): 974 ng/mL
mean free (unbound) fraction (plasma proteins [5]; plasma drawn 4 hours after start of continuous i.v. infusion, Day 4): 0.62%
dependence of unbound fraction on total drug plasma concentration (plasma proteins [5]; range 211 ng/mL to 812 ng/mL): independent of total drug plasma concentration
CYP450 metabolic pathway (CYP3A4): CYP3A4 was a predominant metabolic pathway
objective tumor responses (advanced solid tumor; 31 subjects evaluable): No objective tumor responses were observed
stable disease for at least 6 months (advanced solid tumor; 31 subjects evaluable): 14 subjects
duration of hematological improvement (durable increase in hemoglobin) (advanced solid tumor; one subject with MDS): 8 months
febrile neutropenia, subjects ([6]; 1 subject): 3%
Grade 3 or 4 drug-related neutropenia, patients ([6]; 9/30 patients): 30%
phlebitis ([6]; IV bolus via peripheral venous access, not observed via central vein): 3 subjects
dose limiting toxicity ([6]; cohort 1: 30 mg b.i.d. 2-hour i.v., 60 mg per day continuous i.v.): No dose limiting toxicity
dose limiting toxicity (DLT) ([6]; cohort 2: 60 mg b.i.d. 2-hour i.v., 120 mg per day continuous i.v.): no DLT was observed
adverse events associated with intravenous administration ([6]; intravenous tipifarnib): No unusual adverse events
drug-related anorexia ([6]; mainly grade 1): 20%
drug-related diarrhea ([6]; mainly grade 1): 13%
drug-related fatigue ([6]; mainly grade 1): 60%
drug-related nausea ([6]; mainly grade 1): 40%
drug-related vomiting ([6]; mainly grade 1): 17%
fraction unbound at 4 h, 1000 ng/mL (plasma proteins [7]; male, human, pH 7.17, blank plasma fortified with 14C-tipifarnib at 1000 ng/mL, read-out: plasma protein binding (bound) (converted)): 0.0078
dependence of in vitro plasma protein binding on total tipifarnib concentration (plasma proteins [7]; range 100 to 5000 ng/mL): independent of the total tipifarnib concentrations
peak concentration range [8]: 68 to 1458 ng/mL
concentrations of unchanged tipifarnib lower than total radioactivity concentrations ([9]; deproteinized samples): approximately 8 times
concentrations of unchanged tipifarnib lower than total radioactivity concentrations ([9]; nonprecipitated samples): 42 times
oral dose recovered in faeces as tipifarnib [9]: less than 7%
unchanged drug excreted in the urine [9]: No unchanged drug was excreted in the urine
metabolism in human hepatocytes (human hepatocytes): undergoes direct glucoronidation
